Measurements from patent publication US20230346808A1, “CANNABINOID FORMULATIONS AND METHODS OF USE” (PreveCeutical Medical Inc., priority 2020, published 2023).
“And” between values parts separate entries of the source, which are not always exact repeats. Equal values may be shown once.

Key:
[1] = tested on: explanted nasal mucosal tissue; experiment: Ex vivo deposition into nasal mucosa, vertical Franz-diffusion apparatus; format: in vitro ADME, human; conditions: for Deposition of key cannabinoids in µg/g of nasal tissue, Decarboxylated (average of batches D19 & D23): 300 µL decarboxylated sol-gel; for Deposition of key cannabinoids in µg/g of nasal tissue, Decarboxylated (average of batches D19 & D23) / Deposition of key cannabinoids in µg/g of nasal tissue, Native (average of batches N22 & 23): 8 hours post-application, 34° C.; for Deposition of key cannabinoids in µg/g of nasal tissue, Native (average of batches N22 & 23): 300 µL native sol-gel
Procedure: Ex vivo permeation studies were carried out using vertical Franz-diffusion apparatus equipped with temperature-controlled jackets set at 34° C. ± 1° C. Nasal mucosa was taken from middle-turbinate of patients undertaking surgery at Greenslopes Private Hospital. Mucosal tissue was cleaned of blood and bone, then immersed in phosphate-buffered saline (PBS; pH 7.4) at room temperature. The prepared nasal membrane was then sandwiched between donor and receptor cells with the dorsal side of the tissue facing the donor compartment and the ventral side facing the receiver compartment. The receptor cells were filled with 12 mL of PBS and then 300 µL of native or decarboxylated sol-gel samples placed in the donor compartment, ensuring that formulations spread over the entire tissue. To prevent evaporation of the samples, donor cells were covered with Parafilm®. Samples from the receptor cell were taken and volume replaced with PBS at 0, 1, 2, 4, 6 and 8-hours following sol-gel application. Collected tissue samples were then rinsed with MilliQ water after 8 hours, blotted dry with filter paper, wrapped with aluminium foil to protect from light and stored at -80° C. until required for further analysis.
On the day of analysis, the tissue samples were allowed to thaw and were blotted dry using filter paper, cut into small pieces, frozen with liquid nitrogen and ground with a mortar and pestle. Cannabis was extracted from the powdered tissue with ethanol (1 mL) and gently agitated for 12 hours at room temperature. Samples were then transferred to Eppendorf tubes and centrifuged at 10000 rpm for 10 minutes. The supernatant was collected and 100 µL of acetonitrile added to each tube then supernatant collected and again 100 µL was added and stored at -20° C. overnight. The following day each sample was allowed to thaw and centrifuged at 10000 rpm for 10 minutes with supernatant collected and prepared for quantitative analysis using the HPLC method described above in Example 5. Samples of Cannabis sol-gels from native (N22 and N23) and decarboxylated (D19 and D23) extracts were used in this study.
The tissue deposition of cannabinoids was measured per gram of nasal mucosa, with studies based on tissue availability from patients undergoing sinus surgery, and key cannabinoids detected presented in Table 8. The data shown is an average of the 2 native or 2 decarboxylated batches. The amount of sol-gel administered (300 µL) accounts for 3000 µg of cannabinoid content which is a surplus amount (based on micelles, this approximately correlates to the following: for native sol-gels maximum of […] CBDA, 1200 µg THCA; for decarboxylated sol-gels maximum of 960 µg CBDA, 45 µg THCA).

human nasal mucosa [2] = conditions: 2 µL applied, media harvested daily for five days, n = 3
Procedure: Lactate dehydrogenase (LDH) is an oxidoreductase enzyme found in living cells that is released into the cytoplasm upon cell lysis that is under stressor conditions. LDH is detected via a colourimetric cytotoxicity assay that provides a measure of membrane integrity, with high titres of LDH being an indicator of acute cellular damage/toxicity (Lim et al, International Forum of Allergy & Rhinology, 2012, 2(1): p 63-68). […] Acute toxicity was assessed in freshly explanted human nasal tissue.
Human specimens were dissected, connective tissue, debris or blood were removed utilising a 15 blade scalpel and divided into 2-3 mm x 2-3 mm x 1-2 mm sections. […]
LDH was used as the biomarker and analysed using the CytoTox 96® Non-Radioactive cytotoxicity assay kit following manufacturer instructions (Promega, Madison WI). […] After the end of the study, the absorbance of each sample was obtained at 490 nm using FLUOstar Omega Spectrophotometer (BMG Labtech, Offenburg, Germany). The extracellular LDH level was calculated as changes in the LDH levels of tissues treated with a formulation versus tissues treated with PBS. Statistical differences were analysed by one-way ANOVA followed by Dunnet’s multiple comparison test using GraphPad Prism software (v 7.03).

human nasal mucosa [3] = conditions: tissue from end of the 5 day study
Procedure: Untreated tissue samples and post-treated tissue samples from the end of the study were preserved from each well for histological evaluation. Each sample was fixed using 4% formaldehyde and stored at 4° C. overnight. On the following day, tissues were dipped in 20% sucrose overnight and embedded in OCT, frozen at -20° C. and cryo-sectioned into slices. Staining was performed with hematoxylin and eosin for 1 minute and stained samples dehydrated in ethanol, defatted in xylene and cover-slipped for histological examination.
Tissues were examined for morphological changes.

Compound | Deposition of key cannabinoids in µg/g of nasal tissue, Decarboxylated (average of batches D19 & D23) [1] | Deposition of key cannabinoids in µg/g of nasal tissue, Native (average of batches N22 & 23) [1] | Higher tissue level from decarboxylated versus native sol-gels ([1]; decarboxylated versus native extract infused sol-gels) | Extracellular LDH levels versus PBS negative control (human nasal mucosa [2]) | Morphological changes of epithelial and sub epithelial layers of nasal mucosa (human nasal mucosa [3])
C=C(C)[C@@H]1CCC(C)=C[C@H]1c1c(O)cc(CCCCC)cc1O [CBD, cannabidiol] | 3.56 µg/g and 3.56 ± 1.67 µg/g | 3.47 µg/g and 3.47 ± 1.53 µg/g | – | – | –
C=C(C)[C@@H]1CCC(C)=C[C@H]1c1c(O)cc(CCCCC)c(C(=O)O)c1O [CBDA, Cannabidiolic acid] | 10.9 µg/g and 10.9 ± 1.81 µg/g | 3.14 µg/g and 3.14 ± 2.98 µg/g | ca. 3 fold | – | –
CCCCCc1cc(O)c2c(c1)OC(C)(C)[C@@H]1CCC(C)=C[C@@H]21 [THC, delta-9-tetrahydrocannabinol] | 4.19 µg/g and 4.19 ± 2.20 µg/g | 3.54 µg/g and 3.54 ± 1.74 µg/g | – | – | –
CCCCCc1cc2c(c(O)c1C(=O)O)C1C=C(C)CCC1C(C)(C)O2 (centres unmarked) [THCA, Δ^9-Tetrahydrocannabinolic acid] | 11.3 µg/g and 11.3 ± 10.2 µg/g | 5.73 µg/g and 5.73 ± 0.51 µg/g | – | – | –
O=S(=O)([O-])[O-].[Zn+2] [ZnSO4, Zinc sulfate] | – | – | – | significant elevation in LDH levels at day 2 | gross cell and tissue structural damage
